Reference: US20250375473A1, “Pharmaceutical composition for treating cancer comprising an ionic compound having metal ion binding thereto” (METAFINES.CO.LTD., priority 2018, published 2025)
Several values for one entry are separate records, joined by “and”; a condition that tells them apart may be missing. Identical values can stand only once.

What was measured:
HCT-116 cell [1] = test: Co-treatment with chemical anticancer drug, growth inhibition and combinational index; conditions: 48 h, co-treated with Paclitaxel, PTX (μM) in c0 and Example 1 (μM) in c1 of the row
Description: As the co-delivery effect, the synergistic effect was CI≤0.85, the additive effect was 0.85<CI≤1.15, and the antagonistic effect was CI>1.15.

[2] = test system: A549/LUC cells implanted into the lung; test: Lung cancer mouse model (A549/LUC orthotopic model); assay type: in vivo; conditions: 100 mg/kg IV once a day (Qdx4) for 5 weeks; vs control
Description: (§1) In order to construct an animal model with orthotopic xenotransplantation (orthotopic xenograft) and general animal model (orthotopic xenograft), A549/LUC cells and DLD-1 cells were subcultured, and then the cancer cells were injected into the lung and colon of the mice, respectively.
Since the model was directly injected with cancer cells into the mouse organ, the growth of cancer was not confirmed by observation of the mouse appearance. Therefore, in the animal model to which A549/LUC cells were injected, D-Luciferin was injected intraperitoneally every 7 days to determine the growth saturation of cancer by luminescence imaging measurement using IVIS spectrum imaging system (Xenogen) device. On the other hand, in the animal model to which DLD-1 cells were injected, after 7 days, the experimental subjects were sacrificed to determine the growth saturation of cancer. […]
The calcium salts of Examples 1 to 3 were administered to the same mouse model constructed in Test Example 5-1 (A549/LUC orthotopic model), respectively. […] Further, in order to quantify each imaging result more accurately, in vivo images were obtained by measuring ROI (Region of Interest), which is a program of IVIS spectrum (Xenogen), and the results are shown in FIG. 21.

DLD-1 cell = test: IC50 of each drug alone, 48 h, DLD-1; assay type: cell-based
Description: (§2) Then, various concentration of Example or chemical anticancer drugs (Fluorouracil (5-FU), SN-38, Paclitaxel (PTX)) were treated thereto alone.

PDH enzyme = test: Time-dependent PDH enzyme activity in cancer cells; assay type: cell-based; conditions: DLD-1 and HT-29 cancer cells; FIG. 29
[3] = test system: ovarian cancer cell line (A2780); test: MTT assay, 48 h, A2780; conditions: 48 h, MTT
Description: (§6) 7 cell lines were aliquoted to each well of a 96-well plate at 5×10^3 cells, and cultured for 24 hours. […] The drug-treated cells were cultured in an incubator (37° C., 5% CO2) for 48 hours, and 5 mg/ ? MTT reagent 10 ? was added to each well and cultured for additional 4 hours. Then, culture medium was removed and DMSO 100 ? was treated to dissolve the MTT stained precipitate, and absorbance was measured at 540 nm with a microplate reader.

[4] = test system: brain cancer cell line (U87MG); test: MTT assay, 72 h, brain cancer cell line; assay type: cell-based; conditions: U87MG, MTT
Description: (§3) The calcium salts of Examples 1 to 3 were added to each well by concentration (20 mg/ ? , mg/ ? , 0.8 mg/ ? , 0.16 mg/ ? , 0.032 mg/ ? , 0.0064 mg/ ? , 0.00128 mg/ ? , 0.000256 mg/ ? ). […] The supernatant was removed using a centrifuge, DMSO 200 ? was added to each well to dissolve the MTT stained precipitate, and OD540 value was measured at 540 nm with an ELISA reader.

[5] = test system: pancreatic cancer cell line (PANC-1); test: MTT assay, 48 h, PANC-1; conditions: 48 h, MTT
Description: as §6

HCT-116 cell [6] = test: IC50 of each drug alone, 48 h, HCT-116; assay type: cell-based, human; conditions: read-out: IC50 value, HCT-116 cell
Description: as §2

[7] = test system: DLD-1 cells transplanted into the colon; test: Colorectal cancer mouse model (DLD-1 orthotopic model); assay type: in vivo; conditions: 100 mg/kg IV once a day (Qdx4) for 1 week; dissected after 1 week; vs control
Description: as §1
Since the model was directly injected with cancer cells into the mouse organ, the growth of cancer was not confirmed by observation of the mouse appearance. Therefore, in the animal model to which A549/LUC cells were injected, D-Luciferin was injected intraperitoneally every 7 days to determine the growth saturation of cancer by luminescence imaging measurement using IVIS spectrum imaging system (Xenogen) device. On the other hand, in the animal model to which DLD-1 cells were injected, after 7 days, the experimental subjects were sacrificed to determine the growth saturation of cancer.
In other words, general DLD-1 cells were transplanted into the colon to construct a colorectal cancer mouse model (DLD-1 orthotopic model), and orthotopic xenotransplantation was conducted to the lung to construct a lung cancer mouse model (A549/LUC orthotopic model).
Further, weight of cancer tissue was measured to confirm the anticancer efficacy of the inventive substance in vivo and the results are shown in FIG. 19B.

HT-29 cell = test: IC50 of each drug alone, 48 h, HT-29; assay type: cell-based, human
Description: as §2

[8] = test system: colorectal cancer cell line (HT-29); test: MTT assay, 48 h, HT-29; conditions: 48 h, MTT
Description: as §6

[9] = Maintenance of hetero salt form in aqueous solution (MS); assay type: physicochemical; conditions: added to water
[10] = GLP toxicity studies (NOAEL), intravenous and oral; assay type: in vivo
Description: In detail, the ionic compound is administered in a dose ranging from 1.61 mg/kg to 64.86 mg/kg based on body weight of the subject. Reflecting the results of actual nonclinical efficacy, toxicity and clinical phase 1 PK/PD (pharmacokinetics/pharmacodynamics) studies, the clinically effective doses are expected to be in the HED (Human Equivalent Dose) ranges 1.61 mg/kg for intravenous administration and 7.22 mg/kg for oral administration-up to a maximum of 32.43 mg/kg for intravenous administration and 64.86 mg/kg for oral administration.

[11] = test system: breast cancer cell line (MDA-MB-231); test: MTT assay, 72 h, breast cancer cell line; assay type: cell-based; conditions: MDA-MB-231; 72 h; MTT
Description: as §3

DLD-1 = test: Hetero salts vs homo salts, cell viability and cytotoxicity, DLD-1; assay type: cell-based; conditions: DLD-1; 10 mM
Description: (§4) Hetero salts prepared according to the examples (ASCA101, ASCA201) and homo salts were applied to colorectal cancer cell lines, and their effects on cell viability and cytotoxicity were evaluated.
(§5) Herein, “Na-ASC” refers to sodium ascorbate, “Na-DCA” refers to sodium dichloroacetate, “Ca (ASC) 2” refers to calcium ascorbate, “Ca (DCA) 2” refers to calcium dichloroacetate, and “Ca (LA) 2” refers to calcium lactate.

[12] = ASCA101 in rat plasma after intravenous administration (LC-MS/MS); assay type: in vivo; conditions: 0.083 hours after intravenous administration
[13] = ASCA101 in beagle dog plasma after intravenous administration (LC-MS/MS); assay type: in vivo
[14] = test system: colorectal cancer cell line (DLD-1); test: MTT assay, 72 h, colorectal cancer cell line; assay type: cell-based; conditions: DLD-1; 72 h; MTT
Description: as §3

[15] = test system: colorectal cancer cell line (HCT-116); test: MTT assay, 48 h, HCT-116; conditions: 48 h; MTT; value in brackets
Description: as §6

[16] = test system: liver cancer cell line (HepG2); test: MTT assay, 48 h, HepG2; conditions: 48 h, MTT
Description: as §6

[17] = test system: human colorectal cancer cell lines (HCT-116 and HT-29); test: Change in ascorbic acid level in cancer cells; assay type: cell-based; conditions: 1 mM; 24 h; lysate; vs untreated control
Description: After culture, the cultured cancer cells were pulverized with a homogenizer and centrifuged, and the concentration of ascorbic acid contained in the lysate was measured using an ascorbic acid assay kit (Biovision, San Francisco, CA).

SW480 = test: Hetero salts vs homo salts, cell viability and cytotoxicity, SW480; assay type: cell-based; conditions: SW480; 5 mM
Description: as §4, §5

[18] = test system: lung cancer cell line (A-549); test: MTT assay, 48 h, A549; conditions: 48 h, MTT
Description: as §6

[19] = test system: poly (ADP-ribose) polymerase 1 (PARP-1); test: Western blot, PARP-1 expression in HCT-116; assay type: cell-based, human; conditions: 24 h
Description: The cultured cancer cells were pulverized with a homogenizer and centrifuged, and the expression levels of poly (ADP-ribose) polymerase 1 (PARP-1), β-catenin, VEGF and β-actin proteins contained in the lysate were measured using Western blot.

[20] = test system: stomach cancer cell line (SNU-638); test: MTT assay, 48 h, SNU-638; conditions: 48 h, MTT
Description: as §6

O=C([O-])C(Cl)Cl.O=C1O[C@H]([C@@H](O)CO)C([O-])=C1O.[Ca+2] [Example 1, calcium salts of dichloroacetic acid and ascorbic acid]
Inhibition effect (%) (HCT-116 cell [1]): 73.298% and 63.569% | anticancer efficacy and metastasis (luminescence imaging, ROI) [2]: the growth and metastasis of cancer tissues was not shown at all | IC50 (DLD-1 cell): 360 µM | time-dependent PDH activity (PDH enzyme): greater increase in PDH activity during the first 6 hours, with the activity remaining relatively stable beyond 6 hours | IC50 of A2780 Ovarian cancer (mg/ml) ([3]; value in brackets): (0.06) mg/ml | IC50 ([3]; read-out: IC50 mM of A2780 Ovarian cancer): 0.17 mM | IC50 of Brain cancer cell line [4]: 500 µg/mL | IC50 of PANC-1 Pancreatic cancer (mg/ml) ([5]; value in brackets): (0.14) mg/ml | IC50 ([5]; read-out: IC50 mM of PANC-1 Pancreatic cancer): 0.42 mM | IC50 (HCT-116 cell [6]): 311 µM | growth of cancer cells / weight of cancer tissue [7]: significantly suppressed growth of cancer cells | IC50 (HT-29 cell): 1330 µM | IC50 of HT-29 Colorectal cancer cell line (mg/ml) ([8]; value in brackets): (0.29) mg/ml | IC50 ([8]; read-out: IC50 mM of HT-29 Colorectal cancer cell line): 0.83 mM | retention of hetero salt structure in aqueous solution (MS peaks) [9]: can retain its hetero salt structure in aqueous solution | human equivalent dose (HED) from NOAEL with safety factor of 10, intravenous ([10]; intravenous route): 1.61 mg/kg | human equivalent dose (HED) from NOAEL with safety factor of 10, oral ([10]; oral route): 7.22 mg/kg | IC50 of Breast cancer cell line [11]: 40 µg/mL | cell viability, DLD-1 (10 mM) (DLD-1): 11.43 | ASCA101 concentration in rat plasma [12]: 26.835 µg/mL | ASCA101 concentration in beagle dog plasma ([13]; 0.083 hours after intravenous administration): 26.835 µg/mL | maintenance of hetero salt form in plasma / liquid medium ([13]; plasma of rats and beagles after intravenous administration): the hetero salt form was maintained in the bloodstream | IC50 of Colorectal cancer cell line [14]: 70 µg/mL | IC50 of HCT-116 Colorectal cancer cell line (mg/ml) [15]: (0.12) mg/ml | IC50 of HepG2 Liver cancer (mg/ml) ([16]; value in brackets): (0.72) mg/ml | IC50 ([16]; read-out: IC50 mM of HepG2 Liver cancer): 2.1 mM | ascorbic acid concentration in cancer cells [17]: increased | cell viability, SW480 (5 mM) (SW480): 20.72 | IC50 of A549 Lung cancer (mg/ml) ([18]; value in brackets): (0.79) mg/ml | IC50 ([18]; read-out: IC50 mM of A549 Lung cancer): 2.3 mM | concentration at which expression level of full length PARP-1 was decreased the most [19]: 0.18 mg/mL | IC50 of SNU-638 Stomach cancer (mg/ml) ([20]; value in brackets): (0.48) mg/ml | IC50 ([20]; read-out: IC50 mM of SNU-638 Stomach cancer): 1.4 mM
